Test results taken from US7678794B2, “Potentiators of glutamate receptors” (Eli Lilly and Company, priority 2004, dated 2010).
pIC50: −log10 of the molar value.

Each molecule was assayed against T1, human CysLT1 receptor (Homo sapiens, UniProt Q9Y271) (assay: Antagonism of LTD4-induced increase in intracellular calcium within a CysLT1 receptor expressing cell line (FLIPR)). Details: AV12-664 cells expressing human CysLT1; 6 nM LTD4; read-out: antagonism of CysLT1 receptors, IC50.
T1 construct: expressed in transfected cells; host or cells: AV12-664 (ATCC-9595)
T1 sequence (Q9Y271 1-337): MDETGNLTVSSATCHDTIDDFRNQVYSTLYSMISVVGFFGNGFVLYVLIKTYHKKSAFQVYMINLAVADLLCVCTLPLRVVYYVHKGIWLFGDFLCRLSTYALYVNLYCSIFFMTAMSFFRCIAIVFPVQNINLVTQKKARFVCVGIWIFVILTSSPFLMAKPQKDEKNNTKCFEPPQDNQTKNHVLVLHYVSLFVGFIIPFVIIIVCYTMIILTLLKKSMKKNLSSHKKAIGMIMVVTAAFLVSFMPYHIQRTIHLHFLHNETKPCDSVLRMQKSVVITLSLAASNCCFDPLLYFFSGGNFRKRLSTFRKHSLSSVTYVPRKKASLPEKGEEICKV
Type: cell-based
Excerpt: Antagonism of Cysteinyl-leukotriene D4 (LTD4)—Induced Increase in Intracellular Calcium within a Cysteinyl-Leukotriene 1 (CysLT1) Receptor Expressing Cell Line
Confluent cultures are passaged weekly. Intracellular calcium levels are monitored in the CysLT1-expressing cells with the addition of LTD4, with or without prior exposure to the compounds being tested as antagonists with a Fluorometric Imaging Plate Reader (FLIPR, Molecular Devices). The following buffer is used throughout as an assay buffer: Hanks Buffered Saline Solution without phenol red (GIBCO), with 10 mM HEPES pH 7.4. Cells that had been plated 48 hours prior at a density of 20-25,000 cells per well in a 96-well plate are loaded with a calcium-sensitive dye for 90 minutes at 25° C. Fluo-3 (2 mM in DMSO, Molecular Probes) is mixed with an equal volume of 10% pluronic acid in DMSO, and diluted to 8 μM in the buffer described above containing 10% fetal bovine serum to make the loading buffer. Following loading of the cells, the buffer is removed and replaced with assay buffer prior to drug addition and monitoring on the FLIPR for several minutes. […] Least squares curve fitting with a four-parameter equation is applied to the resulting dose-% inhibition curve to determine the resulting IC50 values.

pIC50, > 6.30:
CCCc1c(OCc2ccc(S(=O)(=O)Nc3ccccc3-c3nn[nH]n3)cc2)ccc(C(C)=O)c1O [Example 10, 4-(4-Acetyl-3-hydroxy-2-propyl-phenoxymethyl)-N-[2-(2 H-tetrazol-5-yl)-phenyl]-benzene-sulfonamide]
CCCc1c(OCc2cccc(S(=O)(=O)Nc3ccccc3-c3nn[nH]n3)c2)ccc(C(C)=O)c1O [Example 13, 3-(4-Acetyl-3-hydroxy-2-propyl-phenoxymethyl)-N-[2-(2 H-tetrazol-5-yl)-phenyl]-benzene-sulfonamide]
CCCc1c(OCc2ccc(NC(=O)Nc3cccc(C(=O)O)c3)cc2)ccc(C(C)=O)c1O [Example 1, 3-{3-[4-(4-acetyl-3-hydroxy-2-propyl-phenoxymethyl)-phenyl]-ureido}-benzoic acid]
CCCc1c(OCc2cccc(S(=O)(=O)Nc3cccc(-c4nn[nH]n4)c3)c2)ccc(C(C)=O)c1O [Example 12, 3-(4-Acetyl-3-hydroxy-2-propyl-phenoxymethyl)-N-[3-(2 H-tetrazol-5-yl)-phenyl]-benzene-sulfonamide]
